Results reported in patent publication US10077261B2, “Imidazolin-5-one derivative useful as FASN inhibitors for the treatment of cancer” (Janssen Pharmaceutica NV, priority 2012, dated 2018).

Key:
[1] = molecular target: Fatty Acid Synthase Keto-reductase Domain (FASN KR) (Homo sapiens, UniProt P49327); assay: Fatty Acid Synthase keto-reductase domain (FASN KR) inhibition, NADPH oxidation at 340 nm
Method: After 20 minutes incubation at room temperature the plate was measured again (T2).
The decrease in absorbance was calculated as (Absorbance before incubation T1)−(Absorbance following incubation T2).
A plot of Controlmin versus test compound concentration was fitted to a 4-parameter logistic curve using a non-linear least squares regression method.

[2] = tested on: A2780 ovarian cells; assay: A2780 ovarian cell proliferation assay in lipid reduced medium, with palmitate (MTT); format: cell-based; settings: Homo sapiens, A2780, 96 h; read-out: pIC50 A2780 Ovarian Cell, With Palmitate (converted)
Method in brief: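 In this palmitate-supplemented format, compound dilutions (30 μM down to 0.01 μM) are added to cells in lipid-reduced serum with 25 μM palmitate, 0.2% fatty-acid-free BSA and 0.25% ethanol. After four days (96 h) MTT absorbance at 544 nm is recorded and fitted by minimum sum of squares.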

[3] = molecular target: T1, hFASN enzyme (full length) (Homo sapiens, UniProt P49327); assay: Fatty Acid Synthase (FASN) inhibition scintillation proximity assay; format: biochemical; settings: for inhibition at 10 µM: read-out: Human FASN % inhibition @ 10 μM, 10 μM test compound; for IC50: read-out: Human FASN pIC50 (converted)
T1 construct: 10 μL hFASN enzyme (full length, 300 ng, purified in house); made in house
T1 sequence (P49327 whole entry): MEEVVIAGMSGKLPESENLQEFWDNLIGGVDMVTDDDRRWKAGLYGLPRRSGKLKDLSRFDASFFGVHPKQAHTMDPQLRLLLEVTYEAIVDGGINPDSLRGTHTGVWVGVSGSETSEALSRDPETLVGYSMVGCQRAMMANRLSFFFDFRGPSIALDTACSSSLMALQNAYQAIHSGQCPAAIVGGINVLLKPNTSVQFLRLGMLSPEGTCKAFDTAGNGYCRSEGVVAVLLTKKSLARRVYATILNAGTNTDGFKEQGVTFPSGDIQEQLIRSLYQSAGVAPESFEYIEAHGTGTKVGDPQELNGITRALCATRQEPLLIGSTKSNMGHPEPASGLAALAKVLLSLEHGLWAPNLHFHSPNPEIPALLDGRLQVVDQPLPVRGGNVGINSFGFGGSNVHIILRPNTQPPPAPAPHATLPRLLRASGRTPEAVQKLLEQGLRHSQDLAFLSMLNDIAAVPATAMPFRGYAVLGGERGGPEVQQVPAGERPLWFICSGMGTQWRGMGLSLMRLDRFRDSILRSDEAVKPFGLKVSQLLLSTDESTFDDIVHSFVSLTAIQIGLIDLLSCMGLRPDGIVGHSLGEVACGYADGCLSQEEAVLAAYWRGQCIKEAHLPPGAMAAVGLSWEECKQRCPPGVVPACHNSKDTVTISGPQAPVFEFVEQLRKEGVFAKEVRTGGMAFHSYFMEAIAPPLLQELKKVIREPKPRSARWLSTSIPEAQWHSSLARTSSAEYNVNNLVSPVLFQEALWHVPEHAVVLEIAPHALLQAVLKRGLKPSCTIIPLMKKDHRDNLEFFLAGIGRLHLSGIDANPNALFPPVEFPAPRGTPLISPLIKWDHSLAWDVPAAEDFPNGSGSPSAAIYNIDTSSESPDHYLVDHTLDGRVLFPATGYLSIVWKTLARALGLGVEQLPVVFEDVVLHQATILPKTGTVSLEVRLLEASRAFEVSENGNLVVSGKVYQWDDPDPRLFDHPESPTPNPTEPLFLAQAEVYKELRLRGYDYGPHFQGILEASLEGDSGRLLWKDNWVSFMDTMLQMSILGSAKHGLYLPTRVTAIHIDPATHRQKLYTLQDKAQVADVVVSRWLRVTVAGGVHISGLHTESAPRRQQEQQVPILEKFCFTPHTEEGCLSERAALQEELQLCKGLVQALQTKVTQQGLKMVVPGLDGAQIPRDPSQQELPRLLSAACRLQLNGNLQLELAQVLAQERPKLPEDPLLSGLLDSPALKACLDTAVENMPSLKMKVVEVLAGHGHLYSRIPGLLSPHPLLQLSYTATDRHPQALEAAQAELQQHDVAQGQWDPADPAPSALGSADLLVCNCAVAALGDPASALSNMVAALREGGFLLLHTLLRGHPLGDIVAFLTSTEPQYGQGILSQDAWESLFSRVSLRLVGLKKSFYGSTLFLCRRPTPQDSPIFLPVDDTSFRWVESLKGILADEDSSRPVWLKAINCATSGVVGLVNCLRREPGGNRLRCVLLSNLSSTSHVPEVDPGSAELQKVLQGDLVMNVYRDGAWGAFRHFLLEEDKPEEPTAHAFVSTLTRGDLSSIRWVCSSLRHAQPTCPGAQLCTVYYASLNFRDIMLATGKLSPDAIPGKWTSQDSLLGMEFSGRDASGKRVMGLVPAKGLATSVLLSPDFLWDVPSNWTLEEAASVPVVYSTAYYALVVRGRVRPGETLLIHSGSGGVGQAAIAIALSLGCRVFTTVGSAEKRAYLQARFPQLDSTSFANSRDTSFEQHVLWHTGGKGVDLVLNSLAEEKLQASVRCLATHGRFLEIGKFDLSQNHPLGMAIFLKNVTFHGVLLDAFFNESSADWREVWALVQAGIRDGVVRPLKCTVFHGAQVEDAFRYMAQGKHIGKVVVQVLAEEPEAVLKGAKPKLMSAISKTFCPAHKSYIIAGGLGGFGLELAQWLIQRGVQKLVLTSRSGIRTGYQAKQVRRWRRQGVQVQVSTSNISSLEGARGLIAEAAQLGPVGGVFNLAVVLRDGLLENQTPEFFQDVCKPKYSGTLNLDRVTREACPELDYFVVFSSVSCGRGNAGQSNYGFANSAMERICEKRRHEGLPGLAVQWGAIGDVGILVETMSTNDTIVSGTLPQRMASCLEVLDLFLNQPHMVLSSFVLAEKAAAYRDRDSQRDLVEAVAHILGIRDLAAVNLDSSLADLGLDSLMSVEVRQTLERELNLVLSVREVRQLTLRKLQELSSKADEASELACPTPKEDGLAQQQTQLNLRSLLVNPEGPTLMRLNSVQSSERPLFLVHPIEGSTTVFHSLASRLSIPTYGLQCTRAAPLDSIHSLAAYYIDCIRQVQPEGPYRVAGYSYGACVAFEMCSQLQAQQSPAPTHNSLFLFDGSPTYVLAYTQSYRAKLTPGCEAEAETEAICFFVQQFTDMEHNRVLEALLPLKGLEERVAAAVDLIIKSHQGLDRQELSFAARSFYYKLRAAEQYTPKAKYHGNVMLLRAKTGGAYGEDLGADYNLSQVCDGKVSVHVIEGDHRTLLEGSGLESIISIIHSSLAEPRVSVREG
Method in brief: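 Scintillation proximity format: in-house full-length enzyme, 300 ng per well, pH 7.5 phosphate/DTT buffer, ³H-acetyl-CoA and malonyl-CoA. Emission counted on LEADseeker at 610 nm at least 24 h after stopping.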

[4] = tested on: A2780 ovarian cells; assay: A2780 ovarian cell proliferation assay in lipid reduced medium, without palmitate (MTT); format: cell-based; settings: Homo sapiens, A2780, 96 h; read-out: pIC50 A2780 Ovarian Cell, Without Palmitate (converted)

Sequence of Fatty Acid Synthase Keto-reductase Domain (FASN KR) (P49327 whole entry, the tested form may be a part): as the sequence (P49327 whole entry) above

Structure (SMILES)	IC50 [1] [µM]	IC50 [2] [µM]	inhibition at 10 µM [3] [%]	IC50 [3] [µM]	IC50 [4] [µM]
N#Cc1ccc(-c2ccc(C3=NC4(CCCC4)C(=O)N3C[C@@H]3CCN(C(=O)C4CC4)C3)cc2)cc1 [compound 1, 4′-(3-{[(3R)-1-(Cyclopropylcarbonyl)pyrrolidin-3-yl]methyl}-4-oxo-1,3-diazaspiro[4.4]non-1-en-2-yl)biphenyl-4-carbonitrile]	0.759	> 10	93	0.575	1.12
O=C(C1CC1)N1CC[C@@H](CN2C(=O)C3(CCCC3)N=C2c2ccc(-c3ccc4[nH]ccc4c3)cc2)C1 [compound 4, 3-{[(3R)-1-(Cyclopropylcarbonyl)pyrrolidin-3-yl]methyl}-2-[4-(1H-indol-5-yl)phenyl]-1,3-diazaspiro[4.4]non-1-en-4-one]	0.0457	5.13	103	0.0339	0.0589
O=C(C1CC1)N1CCC(CN2C(=O)C3(CC3)N=C2c2ccc(-c3ccc4[nH]ccc4c3)cc2)CC1 [compound 10, 6-{[1-(Cyclopropylcarbonyl)piperidin-4-yl]methyl}-5-[4-(1H-indol-5-yl)phenyl]-4,6-diazaspiro[2.4]hept-4-en-7-one]	0.501	> 10	89.7	0.204	0.871
O=C(C1CC1)N1CC[C@@H](CN2C(=O)C3(CCCC3)N=C2c2ccc(-c3ccc4ncccc4c3)cc2)C1 [compound 11, 3-{[(3R)-1-(Cyclopropylcarbonyl)pyrrolidin-3-yl]methyl}-2-(4-quinolin-6-ylphenyl)-1,3-diazaspiro[4.4]non-1-en-4-one]	2.04	> 10	82.2	0.933	~3.02
O=C(C1CC1)N1CC[C@@H](CN2C(=O)C3(CCCC3)N=C2c2ccc(-c3ccc4cnccc4c3)cc2)C1 [compound 12, 3-{[(3R)-1-(Cyclopropylcarbonyl)pyrrolidin-3-yl]methyl}-2-(4-isoquinolin-6-ylphenyl)-1,3-diazaspiro[4.4]non-1-en-4-one]	0.049	3.8	99.4	0.0257	~0.0363
COC(=O)N1CCC2(CC1)N=C(c1ccc(-c3ccc4occc4c3)cc1)N(C[C@@H]1CCN(C(=O)C3CC3)C1)C2=O [compound 14, (R)-Methyl 2-(4-(benzofuran-5-yl)phenyl)-3-((1-(cyclopropanecarbonyl)pyrrolidin-3-yl)methyl)-4-oxo-1,3,8-triazaspiro[4.5]dec-1-ene-8-carboxylate]	0.302	> 10	98.2	0.148	1.23
Cn1cc(-c2ccc(-c3ccc(C4=NC5(CCOCC5)C(=O)N4C[C@@H]4CCN(S(C)(=O)=O)C4)cc3)cc2)cn1 [compound 918, (S)-2-(4′-(1-metrhyl-1H-pyrazol-4-yl)-[1,1′-biphenyl]-4-yl)-3-((1-(methylsulfonyl)pyrrolidin-3-yl)methyl)-8-oxa-1,3-diazaspiro[4.5]dec-1-en-4-one]	–	> 10	2	> 10	> 10

Now from value to compound:

IC50 [1] [µM]	IC50 [2] [µM]	inhibition at 10 µM [3] [%]	IC50 [3] [µM]	IC50 [4] [µM]	Structure (SMILES)
–	> 10	38	> 10	> 10	COC(=O)N1CC(CN2C(=O)C3(CCOCC3)N=C2c2ccc(-c3ccc4cccnc4c3)cc2)C1 [compound 922, methyl 3-((4-oxo-2-(4-(quinolin-7-yl)phenyl)-8-oxa-1,3-diazaspiro[4.5]dec-1-en-3-yl)methyl)azetidine-1-carboxylate]
–	> 10	27	> 10	> 10	COC(=O)N1CC2(C1)N=C(c1ccc(-c3ccc4c(cnn4C)c3)cc1)N(C[C@@H]1CCN(C(=O)c3nccs3)C1)C2=O [compound 923, (R)-methyl 6-(4-(1-methyl-1H-indazol-5-yl)phenyl)-8-oxo-7-((1-(thiazole-2-carbonyl)pyrrolidin-3-yl)methyl)-2,5,7-triazaspiro[3.4]oct-5-ene-2-carboxylate]
–	> 10	-9	> 10	> 10	Cn1ncc2cc(-c3ccc(C4=NC5(CCOC5)C(=O)N4CC4CN(C(=O)C(F)(F)F)C4)cc3)ccc21 (stereo not shown) [compound 937, 2-(4-(1-methyl-1H-indazol-5-yl)phenyl)-3-((1-(2,2,2-trifluoroacetyl)azetidin-3-yl)methyl)-7-oxa-1,3-diazaspiro[4.4]non-1-en-4-one]
–	> 10	43	> 10	7.94	O=C(N1CCC(CN2C(=O)C3(CCOC3)N=C2c2ccc(-c3ccc4occc4c3)cc2)C1)C(F)(F)F (stereo not shown) [compound 938, 2-(4-(benzofuran-5-yl)phenyl)-3-((1-(2,2,2-trifluoroacetyl)pyrrolidin-3-yl)methyl)-7-oxa-1,3-diazaspiro[4.4]non-1-en-4-one]
–	> 10	2	> 10	> 10	Cn1cc(-c2ccc(-c3ccc(C4=NC5(CCOC5)C(=O)N4CC4CCN(S(C)(=O)=O)C4)cc3)cc2)cn1 (stereo not shown) [compound 939, 2-(4′-(1-methyl-1H-pyrazol-4-yl)-[1,1′-biphenyl]-4-yl)-3-((1-(methylsulfonyl)pyrrolidin-3-yl)methyl)-7-oxa-1,3-diazaspiro[4.4]non-1-en-4-one]
–	> 10	33	> 10	> 10	Cn1cc(-c2ccc(-c3ccc(C4=NC5(CCOC5)C(=O)N4CC4CCN(C(=O)C(F)(F)F)C4)cc3)cc2)cn1 (stereo not shown) [compound 940, 2-(4′-(1-methyl-1H-pyrazol-4-yl)-[1,1′-biphenyl]-4-yl)-3-((1-(2,2,2-trifluoroacetyl)pyrrolidin-3-yl)methyl)-7-oxa-1,3-diazaspiro[4.4]non-1-en-4-one]
–	> 10	9	> 10	> 10	Cn1cc(-c2ccc(-c3ccc(C4=NC5(CCOC5)C(=O)N4CC4CCN(C(=O)c5nccs5)C4)cc3)cc2)cn1 (stereo not shown) [compound 943, 2-(4′-(1-methyl-1H-pyrazol-4-yl)-[1,1′-biphenyl]-4-yl)-3-((1-(thiazole-2-carbonyl)pyrrolidin-3-yl)methyl)-7-oxa-1,3-diazaspiro[4.4]non-1-en-4-one]
–	> 10	13	> 10	> 10	COC(=O)N1CC2(C1)N=C(c1ccc(-c3ccc4occc4c3)cc1)N(C[C@@H]1CCN(C(=O)c3nccs3)C1)C2=O [compound 957, (R)-methyl 6-(4-(benzofuran-5-yl)phenyl)-8-oxo-7-((1-(thiazole-2-carbonyl)pyrrolidin-3-yl)methyl)-2,5,7-triazaspiro[3.4]oct-5-ene-2-carboxylate]
–	> 10	62	~10.2	> 10	COC(=O)N1CC[C@@H](CN2C(=O)C3(CN(C(=O)OC)C3)N=C2c2ccc(-c3ccc4cccnc4c3)cc2)C1 [compound 963, (S)-methyl 7-((1-(methoxycarbonyl)pyrrolidin-3-yl)methyl)-8-oxo-6-(4-(quinolin-7-yl)phenyl)-2,5,7-triazaspiro[3.4]oct-5-ene-2-carboxylate]
